Data reported in patent publication US8124743B2, “Purification of a bivalently active antibody using a non-chromatographic method” (President and Fellows of Harvard College, priority 2006, dated 2012).
Where “and” joins values, the source holds several entries; their conditions need not be identical. Equal values may be shown once. Read-outs that look alike come from different tables or passages of the source.

Assays:
[1] = molecular target: rat anti-2,4-dinitrophenyl IgG (IgG^DNP, clone LO-DNP-2); experiment: Monovalent dissociation constant of hapten for anti-2,4-DNP IgG, method not given; format: binding; conditions: read-out: monovalent Kd (Kd^affinity) of hapten for IgG^DNP
[2] = system: anti-2,4-DNP IgG (clone LO-DNP-2); experiment: SE-HPLC of formation and dissociation of cyclic IgG aggregates; format: biochemical, rat; conditions: for dissociation of IgG aggregates by excess monovalent hapten: about 1 mM monovalent hapten, SE-HPLC
Method: We used size-exclusion chromatography (SE-HPLC) to follow the purification process. This analytical technique has the advantage that we can resolve monomeric, dimeric, trimeric, and tetrameric antibody aggregates on the column. It has the disadvantage that these aggregates must be kinetically stable (in the absence of competing monovalent hapten) over the time required to carry out a separation (retention time, tr˜15 min).
Validation of Size-Exclusion Chromatography (SE-HPLC) to Examine Aggregates of IgG. Size-exclusion chromatography (SE-HPLC) can resolve the cyclic aggregates of antibodies from each other and from monomeric IgG (FIG. 6). The commercially available purified IgG gave predominantly one peak by SE-HPLC (FIG. 6a) at a retention time (˜15.6 min) consistent with the size of monomeric IgG (˜150 kDa) based on a molecular weight calibration plot (FIG. 3). We formed aggregates in >90% conversion by incubating IgG (2 μM) with 5-10 equivalents of bi and trivalent molecules in chart 1 for 12 hours. […] These antibody aggregates dissociated rapidly (<1 min) in the presence of excess monovalent hapten (6) (1 μM anti-2,4-DNP; 1 μM 1; 1000 μM 6) (FIG. 6c).

[3] = molecular target: IgG from clone (LO-DNP-2), anti-DNP; experiment: Fluorescence titration (tryptophan quenching) for the monovalent dissociation constant; format: binding, rat; conditions: read-out: monovalent dissociation constant (Kd^affinity)
Method: Determination of dissociation constant of antibody and 2,4-DNP. The binding of DNP derivatives to anti-DNP quenches the fluorescence of tryptophan residues of the antibody. We conducted a fluorescence titration to determine the monovalent dissociation constant (Kd^affinity) of the IgG from clone (LO-DNP-2) for Ac2DNP-Lys, and obtained a value of 0.40±0.08 nM.

Compound	Kd [1]	dissociation of IgG aggregates by excess monovalent hapten [2]	also measured
2,4-dinitrophenyl [2,4-DNP]			Kd ([1]; listed as DNP): 8 nM and ~8 nM
4-nitrophenyl [4-NP]	500 nM and ~500 nM		
NCCCC[C@H](Nc1ccc([N+](=O)[O-])cc1[N+](=O)[O-])C(=O)O [compound 6, 2,4-dinitrophenyl lysine]		completely dissociated	time for dissociation of antibody aggregates by excess monovalent hapten ([2]; 1 μM anti-2,4-DNP, 1 μM 1, 1000 μM 6): < 1 min
O=[N+]([O-])c1ccc(OC2O[C@H](CO)[C@@H](O)[C@H](O)[C@H]2O)cc1 (stereo partly shown) [compound 7, 4-nitrophenylglucose]	~500 nM	completely dissociated	
Ac2DNP-Lys			Kd [3]: 0.4 ± 0.08 nM
